Data taken from paper PMC8846325, “A Photoactivable Natural Product with Broad Antiviral Activity against Enveloped Viruses, Including Highly Pathogenic Coronaviruses” (Antimicrobial Agents and Chemotherapy, 2022).

Assays:
HCoV-229E [1] = experiment: HCoV-229E-Luc infection inhibition luciferase assay; type: cell-based; conditions: for antiviral activity against HCoV-229E-Luc, screening of related compounds: Huh-7 cells, 1, 5, 10 µM, light exposure; for light dependence of antiviral effect: HCoV-229E, light versus dark
[2] = MTS cell toxicity assay, Huh-7 cells; type: cell-based; conditions: human, Huh-7 cells, 24 h
Description: (§1) A total of 6 × 10^4 Huh-7, Vero-E6, and Vero-81 cells were seeded in 96-well plates and incubated for 16 h at 37°C in a 5% CO2 incubator. The cells were then treated with increasing concentrations of the compound of interest. One hour after inoculation, cells were taken out of the incubator to be exposed to the white light of a biosafety cabinet (BSC) for 10 min, after which cells were further incubated in the dark at 37°C and 5% CO2 for 23 h. The BSC’s light source lamp consists of one fluorescent tube of 36 W, 3,350 lumen, white light. An MTS [3-(4,5-dimethylthiazol-2-yl)-5-(3-carboxymethoxyphenyl)-2-(4-sulfophenyl)-2H-tetrazolium]-based viability assay (Cell Titer 96 aqueous nonradioactive cell proliferation assay; Promega) was performed as recommended by the manufacturer. The absorbance of formazan at 490 nm was detected using a plate reader (ELX 808 Bio-Tek Instruments Inc.). Each measure was performed in triplicate, and each experiment was repeated at least 3 times.
(§2) 6×104 Huh-7, Vero-E6 and Vero-81 cells were seeded in 96-well plates and incubated for 16 h at 37 °C 5% CO2 incubator. The cells were then treated with increasing concentrations of the compound of interest. One hour after inoculation, cells were either left in the incubator (dark condition) or taken out to be exposed to the white light of the biosafety cabinet (BSC) for 10 min (light condition), after which cells were further incubated in the dark at 37 °C 5% CO2 for 23 h. BSC’s light source lamp consists of one fluorescent tube of 36W, 3350 lumen white light. An MTS [3-(4,5-dimethylthiazol-2-yl)-5-(3-carboxymethoxyphenyl)-2-(4-sulfophenyl)- 2H-tetrazolium]-based viability assay (Cell Titer 96 Aqueous non-radioactive cell proliferation assay, Promega) was performed as recommended by the manufacturer. The absorbance of formazan at 490 nm was detected using a plate reader (ELX 808 Bio-Tek […]
(§3) Instruments Inc). […]

Huh-7 cells = experiment: MTS cell toxicity assay, Huh-7 cells; type: cell-based; conditions: for CC50: 24 h, light exposure
Description: as §1, §2, §3

HCoV-229E [3] = experiment: Quencher assay (singlet oxygen quenchers); type: cell-based
SARS-CoV-2 [4] = type: cell-based
HCoV-229E [5] = experiment: White light exposure kinetics; type: cell-based
SARS-CoV-2 spike protein = SARS-CoV-2 spike protein (Severe acute respiratory syndrome coronavirus 2, UniProt P0DTC2); type: cell-based
Sindbis virus (SINV) = type: cell-based
HCoV-229E [6] = experiment: Time-of-addition assay, HCoV-229E-Luc; type: cell-based
MERS-CoV [7] = experiment: microbe, parasite or virus in culture; type: cell-based
HCoV-229E [8] = experiment: Trypsin-induced virus-cell fusion assay; type: cell-based; conditions: Huh-7 cells, NH4Cl, 0.5 and 1 μM
Vero-81 cells = experiment: MTS cell toxicity assay, Vero-81 cells; type: cell-based; conditions: 24 h in incubator without light exposure
Description: as §1
(§4) 6×104 Huh-7, Vero-E6 and Vero-81 cells were seeded in 96-well plates and incubated for 16 h at 37 °C 5% CO2 incubator. The cells were then treated with increasing concentrations of the compound of interest. […] The absorbance of formazan at 490 nm was detected using a plate reader (ELX 808 Bio-Tek […]

[9] = MTS cell toxicity assay, Vero-81 cells; type: cell-based; conditions: African green monkey, 24 h, 10 min light exposure after 1 h, read-out: 50% cytotoxic concentration (CC50)
Description: as §1, §4

HCoV-229E [10] = experiment: HCoV-229E infectious titers (TCID50); type: cell-based
HCoV-229E [11] = experiment: Attachment assay (bound virions by qRT-PCR); type: cell-based; conditions: Huh-7-TMPRSS2 cells, 4°C 1 h, 4.1 and 8.2 μM
yellow fever virus (YFV) = type: cell-based; conditions: 1 and 2.5 μM, light 30 min prior to inoculation
MERS-CoV [12] = type: cell-based; conditions: Mucilair cells, 2.5 μM, 72 h postinoculation
SARS-CoV-2 [13] = type: cell-based; remark: listed apart in the source
SARS-CoV-2 [14] = experiment: microbe, parasite or virus in culture; type: cell-based
[15] = tested on: pseudotyped viral particles with envelope proteins of VSV, HCV, SARS-CoV-2, and MERS-CoV; type: cell-based
coxsackievirus (CVB4) = type: cell-based, Coxsackievirus B4
[16] = tested on: Mucilair primary human bronchial epithelial cells; experiment: Mucilair toxicity assays (LDH secretion, transepithelial electrical resistance); conditions: 0.25 and 2.5 μM, up to 72 h
hepatitis C virus = type: cell-based, HCV
Vero-E6 cells = experiment: MTS cell toxicity assay, Vero-E6 cells; type: cell-based; conditions: 24 h in incubator without light exposure
Description: as §1, §4

[17] = MTS cell toxicity assay, Vero-E6 cells; type: cell-based; conditions: African green monkey, 24 h, 10 min light exposure after 1 h, read-out: 50% cytotoxic concentration (CC50)
Description: as §1, §4

[18] = light exposure, read-out: CC50 (μM) 24 h
[19] = against HCoV-229E, Huh-7 cells, normal white light exposure, read-out: IC50
[20] = Huh-7-TMPRSS2 cells, Pba 2 μM, BSC light

SMILES: C1=Cc2nc1cc1ccc([nH]1)c(-c1ccccc1)c1nc(cc3ccc([nH]3)c2-c2ccccc2)C=C1 [5,15-DPP]
- antiviral activity against HCoV-229E-Luc, screening of related compounds (HCoV-229E [1]): not active at the tested concentrations

SMILES: C=Cc1c(C)c2cc3nc(c(CC(=O)O)c4[nH]c(cc5nc(cc1[nH]2)C(C)=C5CC)c(C)c4C(=O)O)[C@@H](CCC(=O)O)[C@@H]3C [Chlorin e6, chlorin e6]
- CC50 at 24 h [2, 18]: 21.4 µM
- light dependence of antiviral effect (HCoV-229E [1]): light-dependent antiviral effect
- IC50 (HCoV-229E [1]; Human coronavirus 229E, Huh-7): 0.72 µM

SMILES: C=Cc1c(C)c2cc3nc(c4c5[n-]c(cc6nc(cc1[n-]2)C(C=O)=C6CC)c(C)c5C(=O)[C@@H]4C(=O)OC)[C@@H](CCC(=O)OC/C=C(\C)CCC[C@H](C)CCC[C@H](C)CCCC(C)C)[C@@H]3C.[Mg+2] [Chlorophyll b]
- antiviral activity against HCoV-229E-Luc, screening of related compounds (HCoV-229E [1]): not active at the tested concentrations

SMILES: CCC1=C(C)c2cc3[nH]c(cc4nc(cc5c(CCC(=O)O)c(C)c(cc1n2)n5C)C(CCC(=O)O)=C4C)c(C)c3CC [N-Methyl mesoporphyrin IX, N-methyl mesoporphyrin IX]
- CC50 (Huh-7 cells; Huh-7 cells): > 80 µM
- light dependence of antiviral effect (HCoV-229E [1]): light-dependent antiviral effect
- antiviral activity under dark conditions (HCoV-229E [1]; Huh-7 cells, dark): showed antiviral activity under dark conditions
- IC50 (HCoV-229E [1]; [19]): 1.25 µM

SMILES: [N-]=[N+]=[N-].[Na+] [NaN3]
- effect of quencher on antiviral action of Pba (HCoV-229E [3]): able to reduce the action of Pba

SMILES: C=Cc1c(C)c2cc3nc(c4c5[nH]c(cc6nc(cc1[nH]2)C(C)=C6CC)c(C)c5C(=O)[C@@H]4C(=O)OC)[C@@H](CCC(=O)O)[C@@H]3C [Pba, pheophorbide a]
- infectivity, compound added more than 2 h after inoculation (SARS-CoV-2 [4]): normal levels of infectivity
- inhibition of infection, compound added before inoculation (pretreatment of the cells) (SARS-CoV-2 [4]): no inhibition of infection
- inhibition of infection, compound present during inoculation (SARS-CoV-2 [4]): strong inhibition of infection
- antiviral effect at inactive concentration with long light exposure (HCoV-229E [5]; 0.02 μM, 80 min light exposure): no antiviral effect
- inhibitory effect with longer light exposure times (HCoV-229E [5]; 0.02, 0.2, 2 μM, light 5 to 80 min): increased inhibitory effect
- CC50 at 24 h ([2]; 10 min light exposure after 1 h, read-out: 50% cytotoxic concentration (CC50)): 4.4 ± 1.2 µM
- CC50 at 24 h [2, 18]: 6.08 µM
- concentrations at which no toxicity was exhibited (Huh-7 cells; Huh-7 cells, 24 h in incubator without light exposure): up to 120 μM
- spike-induced cell-cell fusion (syncytium formation) (SARS-CoV-2 spike protein): cannot prevent cell-cell fusion
- antiviral activity on SINV (enveloped) (Sindbis virus (SINV)): clear antiviral effect
- infectivity, compound added more than 2 h after inoculation (HCoV-229E [6]): normal levels of infectivity
- inhibition of infection, compound added before inoculation (pretreatment of the cells) (HCoV-229E [6]; [20]): no inhibition of infection
- inhibition of infection, compound present during inoculation (HCoV-229E [6]; [20]): strong inhibition of infection
- selectivity index, MERS-CoV (MERS-CoV [7]): 24
- IC50 (MERS-CoV [7]; Middle East respiratory syndrome-related coronavirus, Huh-7, read-out: IC50, MERS-CoV infectious titers): 0.18 µM
- infection under trypsin-mediated fusion conditions (HCoV-229E [8]): strongly inhibited infection levels
- activity against HCoV-229E-Luc, extracts and fractions (HCoV-229E [1]; Huh-7 cells, 25 μg/ml, 7 h postinoculation): the most active
- antiviral activity in the dark (HCoV-229E [1]; Huh-7 cells, dark, 10 μM): antiviral activity was observed
- antiviral activity in presence or absence of TMPRSS2 (HCoV-229E [1]; Huh-7 versus Huh-7-TMPRSS2 cells): No difference in antiviral activity
- IC50 (HCoV-229E [1]; Human coronavirus 229E, Huh-7): 0.54 µM
- IC50 (HCoV-229E [1]; Human coronavirus 229E, Huh-7, 7 h, read-out: 50% inhibitory concentration (IC50) against HCoV-229E-Luc): 0.51 µM
- antiviral activity after pretreatment of virus versus no pretreatment (HCoV-229E [1]; virus preincubated 30 min with 2 μM, diluted to 0.2 μM for inoculation, compared with 0.2 μM directly, Huh-7 cells): much stronger
- concentrations at which no toxicity was exhibited (Vero-81 cells): up to 120 μM
- CC50 at 24 h [9]: 5.5 ± 2 µM
- selectivity index (SI), HCoV-229E (HCoV-229E [10]; CC50 Huh-7 / IC50 infectious titers): 44
- IC50 (HCoV-229E [10]; Human coronavirus 229E, Huh-7, 10 min, read-out: IC50, HCoV-229E infectious titers): 0.1 µM
- virus attachment (bound HCoV-229E RNA levels) (HCoV-229E [11]): only a slight and nonsignificant decrease in RNA levels
- antiviral activity on YFV (enveloped) (yellow fever virus (YFV)): clear antiviral effect
- decrease of viral titers, MERS-CoV (MERS-CoV [12]): more than 1 log10
- viral RNA levels of MERS-CoV (MERS-CoV [12]): significantly decreased
- decrease of viral titers, SARS-CoV-2 (SARS-CoV-2 [13]): more than 1 log10
- viral RNA levels of SARS-CoV-2 (SARS-CoV-2 [13]): significantly decreased
- selectivity index, SARS-CoV-2 (SARS-CoV-2 [14]): 32
- IC50 (SARS-CoV-2 [14]; Severe acute respiratory syndrome coronavirus 2, Vero C1008, read-out: IC50, SARS-CoV-2 infectious titers): 0.18 µM
- pseudoparticle infection [15]: inhibited pseudoparticle infection regardless of the nature of the viral envelope protein but only under light conditions
- antiviral activity on CVB4 (nonenveloped) (coxsackievirus (CVB4)): not active
- toxicity (LDH secretion and transepithelial electrical resistance) [16]: No toxicity was observed
- antiviral activity on HCV (enveloped) (hepatitis C virus): clear antiviral effect
- concentrations at which no toxicity was exhibited (Vero-E6 cells): up to 120 μM
- CC50 at 24 h [17]: 5.8 ± 1.9 µM

SMILES: C=Cc1c(C)c2cc3nc(c4c5[nH]c(cc6nc(cc1[nH]2)C(C)=C6CC)c(C)c5C(=O)C4)[C@@H](CCC(=O)O)[C@@H]3C [PyroPba, pyropheophorbide a]
- CC50 at 24 h [2, 18]: 2.67 µM
- toxicity on Huh-7 cells, screening of related compounds (Huh-7 cells; 5, 10, and 25 µM, light): toxic at tested concentrations
- light dependence of antiviral effect (HCoV-229E [1]): light-dependent antiviral effect
- IC50 (HCoV-229E [1]; Human coronavirus 229E, Huh-7): 0.35 µM

SMILES: O=C1OC2(c3cc(I)c(O)c(I)c3Oc3c2cc(I)c(O)c3I)c2c(Cl)c(Cl)c(Cl)c(Cl)c21 [Rose Bengale]
- CC50 (Huh-7 cells; Huh-7 cells): > 80 µM
- antiviral activity against HCoV-229E-Luc, screening of related compounds (HCoV-229E [1]): moderate antiviral activity
- IC50 (HCoV-229E [1]; [19]): 2.86 µM
